The text below walks through data of ChEMBL document CHEMBL5137030 (Eur J Med Chem, 2022).

Active and inactive are the calls of the source. The rule behind the calls is not given here. Some results are limits rather than exact numbers.

Data set [1] concerns Human alphaherpesvirus 2. The data set can be described thus: Antiviral activity against HSV-2 infected in African green monkey Vero cells assessed as inhibition of viral replication by measuring log suppression of virus-induced cytopathic effect at 5 uM incubated for 1 hr followed by washing with PBS and subsequent treatment with compound for 24 hrs by plaque assay. Type of data set: functional. The note with it: time 25 hrs. A general note: Cytopathic effects are the visible damage that an infection or toxin causes in cultured cells.

Data set [2] relates to Human alphaherpesvirus 1. The experiment in a line: Antiviral activity against HSV-1 infected in African green monkey Vero cells assessed as inhibition of viral replication by measuring log suppression of virus-induced cytopathic effect at 1 uM incubated for 1 hr followed by washing with PBS and subsequent treatment with compound for 24 hrs by plaque assay. The data set is classed as functional. The note with it: time 25 hrs.

For data set [3], the system named is Human alphaherpesvirus 2. The experiment in a line: Antiviral activity against wild-type HSV-2 186 infected in African green monkey Vero cells assessed as inhibition of viral replication incubated for 1 hr followed by washing with PBS and subsequent treatment with compound for 24 hrs by plaque reduction assay. The note with it: Human alphaherpesvirus 2, 186, Vero. The data set is classed as functional, organism-based. For orientation: Plaque reduction counts the foci of infection that form in a cell layer.

The nature of data set [4]: Half life in human liver microsomes at 2 uM in presence of NADPH by LC/MS/MS analysis. The data set is classed as ADME, Microsome.
Data set [5] concerns Human alphaherpesvirus 2. The experiment in a line: Antiviral activity against thymidine kinase-deficient ACV-resistant HSV-2 186 TKdeltakpn infected in African green monkey Vero cells assessed as inhibition of viral replication incubated for 1 hr followed by washing with PBS and subsequent treatment with compound for 24 hrs by plaque reduction assay. The data set is classed as functional, organism-based. The note with it: Human alphaherpesvirus 2, 186 TKdeltakpn.

Data set [6] relates to Human alphaherpesvirus 2. The data set can be described thus: Antiviral activity against HSV-2 infected in African green monkey Vero cells assessed as inhibition of viral replication incubated for 1 hr followed by washing with PBS and subsequent treatment with compound for 24 hrs by plaque reduction assay. Type of data set: functional, organism-based. As to conditions: Human alphaherpesvirus 2, Vero.

A short description of data set [7]: Oral bioavailability in BALB/c mouse at 3 mg/kg by LC/MS/MS analysis. Type of data set: ADME, organism-based. As to conditions: in vivo.
Data set [8] in a line: Half life in mouse liver microsomes at 2 uM in presence of NADPH by LC/MS/MS analysis. Type of data set: ADME, Microsome.
Data set [9] has as its system Human alphaherpesvirus 1. The data set can be described thus: Antiviral activity against HSV-1 infected in African green monkey Vero cells assessed as inhibition of viral replication by measuring log suppression of virus-induced cytopathic effect at 5 uM incubated for 1 hr followed by washing with PBS and subsequent treatment with compound for 24 hrs by plaque assay. The data set is classed as functional. The note with it: time 25 hrs.

Data set [10] relates to Human alphaherpesvirus 2. The data set can be described thus: Antiviral activity against HSV-2 infected in African green monkey Vero cells assessed as inhibition of viral replication by measuring log suppression of virus-induced cytopathic effect at 1 uM incubated for 1 hr followed by washing with PBS and subsequent treatment with compound for 24 hrs by plaque assay. As to conditions: time 25 hrs. The data set is classed as functional.

Data set [11] can be described thus: Half-life in BALB/c mouse at 3 mg/kg, po and 1 mg/kg, iv by LC/MS/MS analysis. Type of data set: ADME, organism-based. As to conditions: in vivo.
Data set [12] in a line: Apparent permeability of the compound across apical to basolateral side in human Caco-2 cells at 10 uM incubated for 2 hrs. The data set is classed as ADME, cell-based. As to conditions: caco-2, 2 h. A general note: Caco-2 cells form a polarised layer with tight junctions and transporters.
Data set [13] concerns Human alphaherpesvirus 2. The experiment in a line: Antiviral activity against HSV-2 333vhsB infected in African green monkey Vero cells assessed as inhibition of viral replication by measuring reduction in virus-induced cytopathic effect at 50 uM incubated for 20 hrs by colorimetric analysis. The data set is classed as functional, organism-based.
Data set [14] in a line: Cytotoxicity against human HepDES19 cells assessed as reduction in cell viability incubated for 72 hrs by MTS assay. The note with it: hepdes19, 72 h. Type of data set: toxicity, cell-based.
Data set [15] concerns Vero. The experiment in a line: Cytotoxicity against African green monkey Vero cells assessed as reduction in cell viability incubated for 24 hrs by MTS assay. As to conditions: chlorocebus sabaeus.
The subject of data set [16] is Human alphaherpesvirus 1. The data set can be described thus: Antiviral activity against HSV-1 infected in African green monkey Vero cells assessed as inhibition of viral replication incubated for 1 hr followed by washing with PBS and subsequent treatment with compound for 24 hrs by plaque reduction assay. The data set is classed as functional, organism-based. The note with it: Human alphaherpesvirus 1, Vero.

The EC50 is the concentration giving half of the maximal effect. The bioavailability is the share of a dose that reaches the circulation, judged against a reference dose that is usually intravenous. Usually CC50 stands for the concentration at which the toxic effect on the cells reaches its halfway point. Consider `O=c1cc(-c2ccccc2)cc(C2CCCCC2)n1O`, for which the “log(activity)” value in data set [1] amounted to 4.08; in [2], 3.43; in [9] it was 5.37; in data set [10], 3.73. Also, the EC50 is less than 300 nM in data set [3], less than 300 nM in data set [5] and 290 nM in data set [6]. The t1/2 is less than 5 min in data set [4], less than 5 min in [8] and less than 1 h in data set [11]. Further, the bioavailability in data set [7] stood at 10%. Also, the Papp in data set [12] is listed as 4.33 10^-6 cm/s. In data set [13], the outcome was Active. In [14], the CC50 came out at 20 µM.

Regarding `Cc1cc(Cc2ccccc2)n(O)c(=O)c1`, the “log(activity)” value is listed as 5.79 in data set [1], 1.07 in data set [2], 4.71 in [9] and 1.59 in data set [10]. The values for the t1/2 in [4] and in data set [8] were 6 min and less than 5 min, respectively. For the same compound, the CC50 in data set [15] is greater than 100 µM; in data set [14], 42 µM. Further, the EC50 in data set [6] amounted to 230 nM. The Papp in data set [12] is given as 1.44 10^-5cm/s. Also, the result in [13] was Active.

In the case of `COc1cccc(Cc2cc(C)cc(=O)n2O)c1`, the “log(activity)” value turned out to be 4.57 in data set [1] and 2.15 in data set [10]. In addition, the t1/2 is 19 min in data set [4] and 15 min in data set [8]. In addition, the half-maximal cytotoxic concentration (CC50) in data set [15] was greater than 100 µM; in data set [14], 60 µM. Moreover, the EC50 in [6] is 270 nM. Moreover, in [12], the Papp was 2.43 10^-7 cm/s. Moreover, the outcome in data set [13] was Active.

As for `Cc1cc(Cc2ccc(Cl)cc2)n(O)c(=O)c1`, the “log(activity)” value was found to be 4.4 in data set [1], 2.44 in [2], 4.27 in data set [9] and 3.16 in data set [10]. The EC50 in data set [6] worked out at 310 nM; in [16], 160 nM. Moreover, the bioavailability in data set [7] was 10%. Also, the t1/2 in data set [11] was less than 1 h. Besides, in [13], the result was Active. Further, the half-maximal cytotoxic concentration (CC50) in data set [14] is 26 µM.

With `Cc1cc(Cc2ccc(-c3ccccc3)cc2)n(O)c(=O)c1`, the “log(activity)” value in data set [1] came out at 4.6; in [2] it was 4.37; in data set [9], 4.74; in [10], 3.09. The EC50 in [3] was less than 300 nM; in [5], less than 300 nM; in data set [6] it was 140 nM; in data set [16] it was 210 nM. The values for the t1/2 in [4], in [8] and in data set [11] were less than 5 min, less than 5 min and less than 1 h, respectively. Moreover, the bioavailability in data set [7] turned out to be 10%. Moreover, the Papp in data set [12] is 1.35 10^-6 cm/s. In [13], the result was Active. Moreover, the cytotoxic concentration (CC50) in data set [14] was determined as 12 µM.

Regarding `Cc1cc(C2CCCCC2)n(O)c(=O)c1` [CICLOPIROX], the “log(activity)” value in [1] came out at 5.5; in data set [2] it was 1.66; in data set [9], 4.62; in data set [10], 2.6. Also, the EC50 is less than 300 nM in data set [3], less than 300 nM in data set [5], 500 nM in data set [6] and 270 nM in [16]. In addition, the CC50 in [15] is greater than 100 µM; in [14] it was 13 µM.

Consider `Cc1cc(CC2CCCCC2)n(O)c(=O)c1`, for which the “log(activity)” value in data set [1] amounted to 4.9; in data set [2], 3.98; in data set [9], 4.43; in data set [10] it was 4.19. For the same compound, the t1/2 in data set [4] is less than 5 min; in data set [8] it was less than 5 min; in data set [11], less than 1 h. The EC50 in data set [6] was determined as 260 nM. This compound also showed a bioavailability in data set [7] of 10%. For the same compound, the Papp in data set [12] was 3.14 10^-5cm/s. Also, the outcome in data set [13] was Active. For the same compound, in data set [14], the CC50 amounted to 28 µM.

As to `Cc1cc(Cc2cccc3ccccc23)n(O)c(=O)c1`, the “log(activity)” value in data set [1] is 4.33; in [2], 2.99; in data set [9], 4.81; in [10], 3.12. Also, the figures for the EC50 in data set [3], in [5] and in data set [6] were less than 300 nM, less than 300 nM and 220 nM, respectively. The t1/2 in [4] was less than 5 min; in data set [8] it was less than 5 min; in data set [11], less than 1 h. Besides, the CC50 came to 93.1 µM in data set [15] and 25 µM in [14]. Besides, the bioavailability in [7] worked out at 10%. In [12], the Papp is reported as 6.46 10^-6 cm/s. Also, the outcome in data set [13] was Active.
